Where two headings read alike, the source gives them in different places.
Tests used:
[1] = target: T1, δ receptor (mouse vas deferens) (Mus musculus, UniProt P32300); conditions: percentage inhibition of contraction at 1 μM; data from Ananthan et al. (I); cited from earlier work
[2] = target: μ receptor (guinea pig ileum) (Cavia porcellus, UniProt A0ACM8Q262); conditions: data from Ananthan et al. (I), cited from earlier work; for antagonist activity GPI (μ) Ke: PL-017 as agonist; for agonist activity GPI (μ) % max resp: percentage inhibition of contraction at 1 μM
opioid μ receptor [3] = target: T2, opioid μ receptor (Rattus norvegicus, UniProt P33535); conditions: data from Ananthan et al. (I), cited from earlier work
opioid κ receptor [4] = target: T3, opioid κ receptor (Cavia porcellus, UniProt P41144); conditions: data from Ananthan et al. (I), cited from earlier work
[5] = target: T1, δ receptor (mouse vas deferens); set-up: from tissue; host or cells: mouse vas deferens (male ICR mice); conditions: DPDPE as agonist; data from Ananthan et al. (I); cited from earlier work
opioid δ receptor [6] = target: T4, opioid δ receptor (Rattus norvegicus, UniProt P33533); conditions: read-out: Ki (nM) ± SEM δ; [3H]DADLE, rat brain membranes; data from Ananthan et al. (I); cited from earlier work
T4 construct: Rat membranes are prepared each day using a partially thawed frozen rat brain; from tissue; host or cells: rat brain membranes

mice [7] = experiment: 55° C. tail-flick antinociception test in mice; conditions: for naloxone sensitivity: naloxone 10 mg/kg ip, -10 min, yes = greater than 80% reduction in the antinociceptive effect
Description: Analgesic Testing and Assessment of Tolerance Development. The analgesic activity of selected ligands is tested in mice using the 55° C. tail-flick test as previously described. (See Wells et al., supra.) The test compounds are administered by the intracerbroventricular (icv) route. […] To determine whether the analgesic activity of the tested compounds is mediated through opioid receptors, the blockade of antinociceptive activity by pretreatment with naloxone is carried out. The analgesic activity was considered as naloxone sensitive if greater than 80% reduction in the antinociceptive response is observed.
Antinociceptive Studies. Male ICR mice (Harlan) are used for all evaluations. Mice are housed in a temperature and humidity controlled vivarium on a 12:12 h light:dark cycle with unlimited access to food and water prior to the formal procedures. […] The dihydrochloride salt of 7h is dissolved in water and injected in a volume of 5 μL. All other compounds are dissolved in 100% DMSO and injected in a volume of 5 μL. Antinociceptive assays are performed at various times after injection.
Percent antinociception is calculated using the formula: % MPE (maximal possible effect)=100×(test−control)/(cutoff−control) where control is the predrug observation, test is the postdrug observation, and cutoff is the maximal length of stimulus allowed (10 s for 55° C. tail-flick). Antinociceptive A50 values and 95% confidence intervals are determined using linear regression software (FlashCalc). Opioid activity of the test compounds are assessed by pretreating animals with naloxone (10 mg/kg ip, −10 min) followed by an icv injection of an approximate A90 dose of test compound. […] Antinociception is assessed in the 55° C. tail-flick test at 10, 20 and 30 min. A positive response to a fixed dose of naloxone is indicated when greater than 80% reduction in the antinociceptive effect of the agonist is observed.

κ receptor [8] = target: T5, κ receptor (Cavia porcellus, UniProt P41144); conditions: for Ki: read-out: antagonist activity apparent Ki (nM ± SD) κ
μ receptor [9] = target: T6, μ receptor (Cavia porcellus, UniProt A0ACM8Q262); conditions: guinea pig caudate membranes; Xu et al.; cited from earlier work
mice [10] = conditions: icv or ip administration in mice; Wells et al.; cited from earlier work
mice [11] = conditions: icv or ip administration in mice; Wells et al.; cited from earlier work; remark: listed apart in the source
human μ receptors = human μ receptors (Homo sapiens, UniProt P35372); conditions: cloned cells expressing human μ receptors; Xu et al.; cited from earlier work
mice [12] = conditions: repeated ip injections; Wells et al.; cited from earlier work
δ receptor [13] = target: T7, δ receptor (Cavia porcellus, UniProt A0A286XTF2); experiment: biochemical
opioid δ receptor [14] = target: T4, opioid δ receptor; experiment: Opioid δ receptor binding, [3H]DADLE displacement in rat brain membranes; conditions: displacement of [3H]DADLE (1.3-2.0 nM), rat brain membranes, 100 nM DAMGO to block μ sites; read-out: Ki (nM) ± SEM δ
[15] = target: T1, δ receptor (mouse vas deferens); experiment: Mouse vas deferens (MVD) smooth muscle bioassay; conditions: inhibition of electrically stimulated contractions; read-out: agonist activity MVD (δ) IC50
Description: (§1) Bioassays in Smooth Muscle Preparations. The functional activity profiles of selected ligands are also determined in the mouse vas deferens (MVD) and guinea pig ileum (GPI) smooth muscle preparations as described previously.
(§2) The agonist activity is determined by the ability of the compound to inhibit electrically stimulated contractions of the GPI and MVD. The GPI is primarily a μ receptor preparation, even though the ileum does also contain κ receptors. In the MVD, the opioid effects are predominantly mediated through δ receptors, but μ and κ receptors also exist in this tissue.
(§3) Tissues came from male ICR mice weighing 25-40 g and male Hartley guinea pigs weighing 250-500 g. The tissues are tied to gold chain with suture silk, suspended in 20 mL baths containing 37° C. oxygenated (95% O2, 5% CO2) Krebs bicarbonate solution (magnesium free for the MVD), and allowed to equilibrate for 15 min. The tissues are then stretched to optimal length previously determined to be 1 g tension (0.5 g for MVD) and allowed to equilibrate for 15 min. The tissues are stimulated transmurally between platinum wire electrodes at 0.1 Hz, 0.4 ms pulses (2-ms pulses for MVD), and supramaximal voltage. […] Tissues not producing typical results are not used. Experimental compounds were added to the baths in 14-60 μL volumes. Succeeding doses of agonist are added cumulatively to the bath at 3 min intervals to produce a concentration-response curve. The tissues are then washed extensively with fresh buffer until the original contraction height is reestablished. […] The tissues are then washed with fresh buffer for 30 min, and the agonist dose-response curve was repeated. Rightward shifts in the dose-response curves are calculated by dividing the antagonized dose-response curve IC50 value by the unantagonized IC50 value. IC50 values represent the mean of two to four tissues. IC50 estimates and their associated standard errors are determined by using a computerized nonlinear least-squares method. (MINSQ Least Squares Parameter Estimation, version 3.05; MicroMath Inc., 1999.)

opioid μ receptor [16] = target: T2, opioid μ receptor; conditions: for selectivity ratio μ/δ: ratio of binding Ki values; for Ki: read-out: Ki (nM) ± SEM μ, displacement of [3H]DAMGO (1.4-3.0 nM), rat brain membranes
opioid κ receptor [17] = target: T3, opioid κ receptor; conditions: for selectivity ratio κ/δ: ratio of binding Ki values; for Ki: read-out: Ki (nM) ± SEM κ, displacement of [3H]U69,593 (1.2-[…]), guinea pig brain membranes
μ receptor [18] = target: T6, μ receptor; experiment: biochemical; conditions: read-out: agonist activity Emax % μ
mice [19] = experiment: Tolerance regimen, repeated icv injections, tail-flick assay; conditions: A90 doses icv twice daily for 3 days, tail-flick on day 4; FIG. 4
Description: Tolerance Regimen. […] Antinociceptive dose-response curves in the tail-flick assay are generated on the morning of the fourth day using the procedures outlined above.

[20] = target: T1, δ receptor (mouse vas deferens); experiment: Mouse vas deferens (MVD) smooth muscle bioassay; set-up: from tissue; host or cells: mouse vas deferens (male ICR mice)
Description: as §1, §2, §3

δ receptor [21] = target: T7, δ receptor; conditions: δ receptors, partial inhibition with increasing concentrations
μ receptor [22] = target: T6, μ receptor; conditions: read-out: antagonist activity apparent Ki (nM ± SD) μ; inhibition of DAMGO (10 μM) stimulated [35S]GTP-γ-S binding
κ receptor [23] = target: T5, κ receptor; experiment: biochemical

T6 sequence (A0ACM8Q262 1-400): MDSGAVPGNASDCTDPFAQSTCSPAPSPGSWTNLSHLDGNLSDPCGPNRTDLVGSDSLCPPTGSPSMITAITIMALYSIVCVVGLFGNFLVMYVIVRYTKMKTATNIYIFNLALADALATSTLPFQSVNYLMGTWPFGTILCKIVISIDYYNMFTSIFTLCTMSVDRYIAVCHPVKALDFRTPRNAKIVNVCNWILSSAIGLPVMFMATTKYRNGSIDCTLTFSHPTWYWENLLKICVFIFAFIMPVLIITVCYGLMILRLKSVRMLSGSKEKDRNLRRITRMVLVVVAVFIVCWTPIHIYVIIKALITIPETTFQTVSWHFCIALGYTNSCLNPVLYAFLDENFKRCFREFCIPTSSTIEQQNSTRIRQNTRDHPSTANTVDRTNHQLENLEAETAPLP
Sequence of μ receptor (guinea pig ileum) (A0ACM8Q262 1-400): as above
T1 sequence (P32300 whole entry): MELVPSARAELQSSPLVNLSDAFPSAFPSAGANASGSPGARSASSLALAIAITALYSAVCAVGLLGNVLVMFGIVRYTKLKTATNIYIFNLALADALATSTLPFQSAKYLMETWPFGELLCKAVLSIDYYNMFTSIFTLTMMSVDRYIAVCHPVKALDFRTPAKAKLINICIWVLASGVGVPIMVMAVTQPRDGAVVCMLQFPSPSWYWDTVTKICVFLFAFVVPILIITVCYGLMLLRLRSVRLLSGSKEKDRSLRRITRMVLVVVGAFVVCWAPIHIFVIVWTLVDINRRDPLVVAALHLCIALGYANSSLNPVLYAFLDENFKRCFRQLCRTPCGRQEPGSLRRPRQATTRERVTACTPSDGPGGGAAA
T2 sequence (P33535 whole entry): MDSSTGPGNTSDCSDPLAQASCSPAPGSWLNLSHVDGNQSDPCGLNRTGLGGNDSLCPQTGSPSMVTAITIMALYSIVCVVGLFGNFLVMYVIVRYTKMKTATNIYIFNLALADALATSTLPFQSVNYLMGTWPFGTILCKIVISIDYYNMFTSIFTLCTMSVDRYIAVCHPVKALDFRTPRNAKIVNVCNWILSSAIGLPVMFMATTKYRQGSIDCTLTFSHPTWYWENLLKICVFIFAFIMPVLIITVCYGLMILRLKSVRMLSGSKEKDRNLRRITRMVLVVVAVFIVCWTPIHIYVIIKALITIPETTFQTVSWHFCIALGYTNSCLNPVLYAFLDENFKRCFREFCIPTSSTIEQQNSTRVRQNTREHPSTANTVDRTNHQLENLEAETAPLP
T5 sequence (P41144 whole entry): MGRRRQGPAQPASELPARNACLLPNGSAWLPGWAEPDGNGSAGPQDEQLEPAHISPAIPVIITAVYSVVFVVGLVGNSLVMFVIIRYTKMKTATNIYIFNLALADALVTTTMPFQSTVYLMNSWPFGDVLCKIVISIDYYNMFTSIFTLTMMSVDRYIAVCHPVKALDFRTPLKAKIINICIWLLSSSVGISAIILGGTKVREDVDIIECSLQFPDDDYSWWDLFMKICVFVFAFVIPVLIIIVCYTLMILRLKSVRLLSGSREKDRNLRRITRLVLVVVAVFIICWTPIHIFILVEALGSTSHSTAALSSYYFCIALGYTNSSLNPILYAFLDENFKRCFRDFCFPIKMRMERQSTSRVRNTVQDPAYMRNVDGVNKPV
T3 sequence (P41144 whole entry): as above
T4 sequence (P33533 whole entry): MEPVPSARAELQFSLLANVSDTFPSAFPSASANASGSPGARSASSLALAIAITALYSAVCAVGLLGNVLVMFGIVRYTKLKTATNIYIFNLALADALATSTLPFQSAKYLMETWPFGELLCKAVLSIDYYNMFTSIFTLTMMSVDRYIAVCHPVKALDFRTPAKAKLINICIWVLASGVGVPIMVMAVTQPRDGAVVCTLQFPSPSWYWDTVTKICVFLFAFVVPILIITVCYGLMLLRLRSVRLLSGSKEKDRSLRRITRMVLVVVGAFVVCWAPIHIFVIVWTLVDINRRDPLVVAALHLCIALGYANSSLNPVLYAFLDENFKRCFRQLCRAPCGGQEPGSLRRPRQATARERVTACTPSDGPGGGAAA
T7 sequence (A0A286XTF2 1-366): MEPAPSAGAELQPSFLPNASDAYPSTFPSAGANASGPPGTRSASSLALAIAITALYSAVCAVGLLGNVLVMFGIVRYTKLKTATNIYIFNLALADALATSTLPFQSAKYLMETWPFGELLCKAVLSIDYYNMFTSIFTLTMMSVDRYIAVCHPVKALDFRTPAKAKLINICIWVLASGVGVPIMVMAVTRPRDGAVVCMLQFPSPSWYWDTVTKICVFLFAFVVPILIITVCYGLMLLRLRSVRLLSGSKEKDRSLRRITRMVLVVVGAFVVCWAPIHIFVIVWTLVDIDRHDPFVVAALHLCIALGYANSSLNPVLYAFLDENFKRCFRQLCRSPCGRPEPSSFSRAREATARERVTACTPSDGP
Sequence of human μ receptors (P35372 whole entry): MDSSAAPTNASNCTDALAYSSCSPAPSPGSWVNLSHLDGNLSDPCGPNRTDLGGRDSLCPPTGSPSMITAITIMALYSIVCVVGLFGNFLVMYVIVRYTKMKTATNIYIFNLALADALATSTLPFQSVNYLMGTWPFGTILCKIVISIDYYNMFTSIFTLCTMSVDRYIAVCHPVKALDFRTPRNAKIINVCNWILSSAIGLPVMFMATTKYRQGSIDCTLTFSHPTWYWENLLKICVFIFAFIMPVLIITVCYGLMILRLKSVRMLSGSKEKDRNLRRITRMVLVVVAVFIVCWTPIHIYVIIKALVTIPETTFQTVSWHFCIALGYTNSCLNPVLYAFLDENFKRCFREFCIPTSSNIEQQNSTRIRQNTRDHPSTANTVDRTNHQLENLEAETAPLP

SMILES | agonist activity MVD (δ) % max resp [1] | antagonist activity GPI (μ) Ke [2] | agonist activity GPI (μ) % max resp [2] | selectivity ratio μ/δ (opioid μ receptor [3]) | selectivity ratio κ/δ (opioid κ receptor [4]) | antagonist activity MVD (δ) Ke [5] | naloxone sensitivity (mice [7]) | Ki (κ receptor [8]) | Ki (δ receptor [13]) | Ki (opioid δ receptor [14]) | IC50 [15] | selectivity ratio μ/δ (opioid μ receptor [16]) | Ki (opioid μ receptor [16]) | selectivity ratio κ/δ (opioid κ receptor [17]) | Ki (opioid κ receptor [17]) | Emax (μ receptor [18]) | other results
Oc1ccc2c3c1OC1c4ncccc4CC4(O)C(C2)N(CC2CC2)CCC314 (stereo not shown) [2a] | 0% | 190 ± 65 nM | 0% | 1.9 | 11 | 37.0 ± 1.0 nM | – | – | – | – | – | – | – | – | – | – | –
Oc1ccc2c3c1OC1c4ncc(-c5ccccc5)cc4CC4(O)C(C2)N(CC2CC2)CCC314 (stereo not shown) [2b] | 4.7% | 43 ± 6.6 nM | 0% | 16 | 20 | 3.7 ± 1.0 nM | – | – | – | – | – | – | – | – | – | – | Ki (opioid δ receptor [6]): 0.87 ± 0.07 nM; Ki (opioid μ receptor [3]; read-out: Ki (nM) ± SEM μ, [3H]DAMGO, rat brain membranes): 13.5 ± 1 nM; Ki (opioid κ receptor [4]; read-out: Ki (nM) ± SEM κ, [3H]U69,593, guinea pig brain membranes): 17.6 ± 1.6 nM
Oc1ccc2c3c1O[C@H]1c4ncc(-c5ccc(Cl)cc5)cc4C[C@@]4(O)[C@@H](C2)N(CC2CC2)CC[C@]314 [2c] | 21% | – | – | – | – | – | yes | 11.2 ± 0.44 nM | 0.000184 µM | – | – | – | – | – | – | – | % nociception @ 100 nmol (mice [7]; icv, 100 nmol, mouse tail-flick): 21% @ 100 nmol^f; μ agonist activity in [35S]GTP-γ-S binding (μ receptor [9]): failed to display μ agonist activity; analgesic activity in the tail-flick assay (mice [10]): partial agonist activity; analgesic activity in the acetic acid writhing assay (mice [11]): full agonist activity; μ agonist activity in [35S]GTP-γ-S binding (human μ receptors): failed to display μ agonist activity; tolerance to antinociceptive effects (mice [12]): did not produce tolerance
CN1CC[C@]23c4c5ccc(O)c4O[C@H]2c2ncc(-c4ccc(Cl)cc4)cc2C[C@H]3[C@H]1C5 [7h, 5′-(4-Chlorophenyl)-6,7-didehydro-4,5α-epoxy-3-hydroxy-17-methylpyrido[2′,3′:6,7]morphinan] | – | – | – | – | – | – | yes | 333 ± 25 nM | 0.011 µM | 4.4 ± 0.2 nM | 0.565 ± 0.0127 µM | 34 | 148 ± 9.5 nM | 18 | 78 ± 13 nM | 48 ± 2% | A50 (mice [7]; icv, mouse tail-flick, at time of peak drug effect): 42.8 nmol; A50 potency value in the tail flick assay (mice [7]; mice, full agonist efficacy, FIG. 2): 21.9; blockade of antinociceptive activity by μ selective antagonist β-FNA (mice [7]; β-FNA 19 nmol, icv, -24 h, FIG. 3): completely blocked; shift in antinociceptive A50 value after repeated injections (mice [19]): less than 1.1 fold; Kb [20]: 0.0219 ± 0.00214 µM
CN1CC[C@]23c4c5ccc(O)c4O[C@H]2c2ncc(-c4ccc(Cl)c(Cl)c4)cc2C[C@H]3[C@H]1C5 [7j, 5′-(3,4-Dichlorophenyl)-6,7-didehydro-4,5α-epoxy-3-hydroxy-17-methylpyrido[2′,3′:6,7]morphinan] | – | – | – | – | – | – | – | – | – | 3.7 ± 0.14 nM | 0.489 ± 0.165 µM | 25 | 93 ± 4 nM | 75 | 278 ± 7 nM | 63 ± 3% | % nociception @ 300 nmol (mice [7]; icv, 300 nmol, mouse tail-flick): 44% @ 300 nmol; factor that prevented determining the A50 value (mice [7]; icv, mouse tail-flick): lack of efficacy; melting point: 184 to 186 °C; maximum percentage inhibition of SNC-80 stimulated [35S]GTP-γ-S binding (δ receptor [21]): 58±3%; Ki (μ receptor [22]): > 1000 nM; maximum inhibition at the κ receptors (κ receptor [8]): 66±6%; IC50 (δ receptor [13]): 0.074 µM; IC50 (κ receptor [23]): 4.77 µM

Reference: US7541364B2, “Pyridomorphinans, pyridazinomorphinans and use thereof” (priority 2003, dated 2009)
